This is an account of results in ChEMBL document CHEMBL1201862, “PubChem BioAssay data set” (2004).

Test [1] deals with Luciferin 4-monooxygenase (Photinus pyralis, UniProt P08659). Briefly: Counter Screen for Luciferase-based Assay Positives. [Related pubchem assays: 620, 618, 411 ].
The subject of a further test is HT-1080. Briefly: HT1080 cell viability loss – fluorescence readout (AID 620). The format is functional, cell-based. The note with it: Homo sapiens.
Test [2] is described as follows: Counterscreen for IDE inhibitors: Luminescence-based cell-based high throughput dose response assay to identify compounds that are cytotoxic to HEK cells. [Related pubchem assays: 434962 (Primary screen (IDE inhibitors in singlicate)), 449730 (Counterscreen (Cytotoxicity in triplicate)), 435028 (Confirmation (IDE inhibitors in triplicate)) …. The format is functional. The note with it: HEK293.

The target of a further test is Insulin-degrading enzyme (Homo sapiens, UniProt P14735). Briefly: Dose Response: Fluorescence polarization-based cell-based high throughput dose response assay for inhibitors of insulin-degrading enzyme (IDE). [Related pubchem assays: 434962 (Primary screen (IDE inhibitors in singlicate)), 449730 (Counterscreen (Cytotoxicity in triplicate)), 435028 (Confirmation (IDE inhibitors in triplicate)), 434984 (Summary …. The format is functional. For orientation: In fluorescence polarisation assays a small probe gives low polarisation when free and higher when bound to something large.

A short description of test [3]: antiviral protection against BTV-induced cell death – arbovirus, BSR cells, confirmation (AID 1250).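 Also: protection from viral cytopathic effect measured as cell viability by ATP luminescence.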 The format is functional.
Test [4] concerns the target FAD-linked sulfhydryl oxidase ALR (Homo sapiens, UniProt P55789). Briefly: ALR-catalysed DTT oxidation blockers – biochemical, H2O2 detection, luminescence, cherry-pick, dose response (AID 493248).
For test [5], the target named is Polyadenylate-binding protein 1 (Homo sapiens, UniProt P11940). Kind of test: blockers of PABP interaction with poly(A) – biochemical, fluorescence polarization, […] (AID 2014).
Test [6] addresses Eukaryotic translation initiation factor 4H (Homo sapiens, UniProt Q15056). Kind of test: eIF4H binding inhibition – biochemical, uHTS, fluorescence polarization, translation initiation inhibitor project, primary screen (AID 2012).
Test [7] is described as follows: HGIII-sPLA2 enzyme inhibition potency – biochemical, QFRET, IC50, dose response (AID 743457).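 Also: green fluorescence rise as the enzyme cleaves BODIPY PC-A2 in liposomes.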
Test [8] addresses T1, Alkaline phosphatase, tissue-nonspecific isozyme (Homo sapiens, UniProt P05186).
T1 sequence (P05186 whole entry): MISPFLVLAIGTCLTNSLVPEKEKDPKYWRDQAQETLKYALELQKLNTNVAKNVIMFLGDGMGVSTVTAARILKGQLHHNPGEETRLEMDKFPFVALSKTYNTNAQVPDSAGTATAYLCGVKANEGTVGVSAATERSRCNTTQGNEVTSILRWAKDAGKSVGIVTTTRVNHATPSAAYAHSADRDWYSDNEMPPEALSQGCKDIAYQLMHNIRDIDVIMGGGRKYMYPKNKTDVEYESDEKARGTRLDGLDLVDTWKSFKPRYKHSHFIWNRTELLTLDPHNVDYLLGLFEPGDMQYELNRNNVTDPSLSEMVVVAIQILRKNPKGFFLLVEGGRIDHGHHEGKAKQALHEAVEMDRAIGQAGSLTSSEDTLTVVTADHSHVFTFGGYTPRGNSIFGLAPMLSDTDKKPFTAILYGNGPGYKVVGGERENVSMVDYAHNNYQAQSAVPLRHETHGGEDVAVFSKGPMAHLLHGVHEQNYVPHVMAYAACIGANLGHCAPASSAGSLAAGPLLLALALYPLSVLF

Activity calls are given as the source filed them.

One may read the EC50 as the concentration that produces a half-maximal response. In general, IC50 refers to the concentration needed to halve the response being measured. A word on the AC50: it is the midpoint of the concentration-response curve, whichever way the signal moves.

Chain of Polyadenylate-binding protein 1 (P11940 whole entry): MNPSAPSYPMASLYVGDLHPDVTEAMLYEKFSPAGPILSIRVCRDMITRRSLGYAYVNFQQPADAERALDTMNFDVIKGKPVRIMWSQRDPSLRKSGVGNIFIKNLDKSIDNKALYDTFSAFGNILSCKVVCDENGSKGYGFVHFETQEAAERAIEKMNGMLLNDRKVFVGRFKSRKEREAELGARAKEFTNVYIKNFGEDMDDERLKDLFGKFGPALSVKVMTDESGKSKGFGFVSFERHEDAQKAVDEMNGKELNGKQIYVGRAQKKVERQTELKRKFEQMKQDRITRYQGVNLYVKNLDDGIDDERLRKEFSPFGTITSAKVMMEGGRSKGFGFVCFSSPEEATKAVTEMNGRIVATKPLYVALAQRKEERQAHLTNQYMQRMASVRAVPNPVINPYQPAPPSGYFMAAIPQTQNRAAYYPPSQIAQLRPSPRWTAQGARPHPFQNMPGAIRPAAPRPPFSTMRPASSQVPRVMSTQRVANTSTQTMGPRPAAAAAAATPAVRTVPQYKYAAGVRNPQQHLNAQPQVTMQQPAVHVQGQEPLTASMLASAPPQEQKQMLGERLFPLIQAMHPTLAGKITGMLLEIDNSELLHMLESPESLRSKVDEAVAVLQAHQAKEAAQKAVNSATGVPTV
Chain of Luciferin 4-monooxygenase (P08659 whole entry): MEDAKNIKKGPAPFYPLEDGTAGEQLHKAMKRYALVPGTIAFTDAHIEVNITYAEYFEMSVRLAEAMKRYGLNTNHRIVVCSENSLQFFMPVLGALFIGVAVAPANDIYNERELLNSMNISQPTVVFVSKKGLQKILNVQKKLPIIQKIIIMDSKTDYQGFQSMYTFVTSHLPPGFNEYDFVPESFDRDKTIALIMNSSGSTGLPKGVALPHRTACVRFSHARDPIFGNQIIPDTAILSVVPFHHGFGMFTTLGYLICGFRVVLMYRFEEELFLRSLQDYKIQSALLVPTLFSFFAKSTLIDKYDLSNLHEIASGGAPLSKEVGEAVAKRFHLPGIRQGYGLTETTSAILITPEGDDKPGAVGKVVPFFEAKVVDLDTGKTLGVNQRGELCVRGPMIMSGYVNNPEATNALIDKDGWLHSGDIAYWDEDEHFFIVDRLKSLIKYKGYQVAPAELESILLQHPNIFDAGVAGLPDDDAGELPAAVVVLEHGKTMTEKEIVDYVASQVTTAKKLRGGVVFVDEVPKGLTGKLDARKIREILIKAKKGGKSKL
Chain of FAD-linked sulfhydryl oxidase ALR (P55789 whole entry): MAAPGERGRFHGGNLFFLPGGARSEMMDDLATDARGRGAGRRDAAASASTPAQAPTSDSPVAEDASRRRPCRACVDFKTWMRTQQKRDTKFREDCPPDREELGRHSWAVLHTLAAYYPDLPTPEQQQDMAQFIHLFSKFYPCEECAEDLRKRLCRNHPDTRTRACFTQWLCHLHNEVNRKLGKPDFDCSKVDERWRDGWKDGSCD
Chain of Insulin-degrading enzyme (P14735 whole entry): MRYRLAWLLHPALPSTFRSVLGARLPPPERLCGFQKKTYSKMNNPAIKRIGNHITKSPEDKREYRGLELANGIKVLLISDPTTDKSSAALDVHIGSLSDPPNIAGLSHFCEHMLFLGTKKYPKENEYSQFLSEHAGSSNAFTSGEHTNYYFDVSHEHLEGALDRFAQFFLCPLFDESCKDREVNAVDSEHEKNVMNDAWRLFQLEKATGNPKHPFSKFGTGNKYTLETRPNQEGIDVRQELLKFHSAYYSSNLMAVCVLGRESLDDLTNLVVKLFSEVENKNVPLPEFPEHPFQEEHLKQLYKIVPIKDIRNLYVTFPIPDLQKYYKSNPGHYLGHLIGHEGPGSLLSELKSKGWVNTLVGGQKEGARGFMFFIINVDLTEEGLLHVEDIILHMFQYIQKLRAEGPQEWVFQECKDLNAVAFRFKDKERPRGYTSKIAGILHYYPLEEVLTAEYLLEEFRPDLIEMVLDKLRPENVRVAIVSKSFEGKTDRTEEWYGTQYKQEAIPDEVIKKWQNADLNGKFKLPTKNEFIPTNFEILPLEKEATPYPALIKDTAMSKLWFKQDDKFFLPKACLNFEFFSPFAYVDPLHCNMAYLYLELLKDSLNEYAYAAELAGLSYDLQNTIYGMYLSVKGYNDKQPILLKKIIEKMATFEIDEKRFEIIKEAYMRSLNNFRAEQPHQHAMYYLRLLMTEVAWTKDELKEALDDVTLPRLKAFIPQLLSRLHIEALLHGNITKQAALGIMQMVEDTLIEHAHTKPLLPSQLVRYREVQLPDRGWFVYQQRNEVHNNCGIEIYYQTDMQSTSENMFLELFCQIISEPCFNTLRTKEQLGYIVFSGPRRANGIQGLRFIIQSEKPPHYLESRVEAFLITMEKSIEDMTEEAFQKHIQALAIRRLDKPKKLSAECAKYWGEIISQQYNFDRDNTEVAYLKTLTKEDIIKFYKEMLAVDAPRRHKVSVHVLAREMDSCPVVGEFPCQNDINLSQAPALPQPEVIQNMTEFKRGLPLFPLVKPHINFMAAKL

`COc1ccc(-c2cc(C(=O)O)c(C)o2)cc1OC`: the figures for the EC50 (in [1]; with HT-1080) were 4.68 µM (active) and > 50 µM (not active), respectively.
Regarding `O=C(N/N=C/c1cccnc1)c1cccc(NC(=O)c2cccc(Br)c2)c1`, the half-inhibitory concentration (IC50) in [2] is reported as 53.6 µM (not active); on Insulin-degrading enzyme, 21.9 µM (not active).
For the compound `CCN(CC)c1ccc(NC(=O)c2c(OC)cccc2OC)c(C)c1`, the IC50 in test [3] is 23.5 µM (active). The AC50 in test [4] is 0.84 µM (active).
`CCCCn1cc[n+](-c2nc3c([N+](=O)[O-])cccc3n2C)c1`: the IC50 in test [5] is 4.55 µM (active); in test [6] it was > 100 µM (inactive).
Consider `Cc1ccc(NC(S)=NNC(=O)c2nn(C)cc2Cl)cc1`, for which the IC50 in [7] was > 122 µM (inactive). Besides, in test [8], the concentration giving a half-maximal response (EC50) is 61 µM (not active).
